Test results: patent US8313901B2, “Methods and compositions related to the modulation of riboswitches” (Yale University, priority 2005, dated 2012)

Assays:
ribD RNA = conditions: cited from earlier work
glmS ribozyme [1] = assay: High-throughput FRET fluorescence screen of substrate cleavage by bimolecular glmS ribozyme (Example 1, Method 1); format: biochemical; conditions: for Fl21 h/Flg h: fluorescence ratio, high-throughput fluorescence screen, 21 h
Description: The naturally occurring glmS RNA element catalyzes self-cleavage in the presence of modest concentrations (>100 μM) of glucosamine-6-phosphate (Gln6P, FIG. 1A). In the absence of this important metabolite, no cleavage activity is observed. Although the natural sequence of the glmS element forms a unimolecular cis-cleaving ribozyme, active glmS ribozyme can also be constructed as a biomolecular […] ribozyme. In this format, the cleaved strand, termed the substrate, includes the 5′ base pairs that form half of the pairing element 1 (P1) and the conserved nucleotides upstream P1 (FIG. 1B). The non-cleaved ribozyme strand includes the 3′ half of P1 and the remaining sequence of the glmS element. Using this biomolecular format, the 16-nucleotide substrate strand was labeled at the 3′ and the 5′ ends with the fluorescently probes fluorescein (F1) and cy3, respectively. In an uncleaved substrate RNA, emission of the excited state fluorescein is quenched by the enforced proximity of the cy3 quencher. Upon cleavage in the presence of the Gln6P system, the binding of Gln6P (or related derivatives) to the glmS riboswitch can be rapidly screened using standard high-throughput techniques.
After a minimum of 10 hours incubation, the fluorescence intensity of FI increased ˜4 fold in the presence of 160 μM glucosamine-6-phosphate, whereas no observable change was detected in the absence of effector (FIG. 2). […] To further explore the discriminatory limits of this detection system, a library of sixteen Gln6P derivatives was also screened. The resulting glmS binding activities correspond well with the binding activities independently determined by gel electrophoresis methods (Table 1). Detection systems are also being used to screen a novel library of 20,000 compounds (Microsource Discovery Systems, Inc.) unrelated to Gln6P for binding the glmS ribozyme.

glmS ribozyme [2] = assay: Electrophoretic in-line probing of analog binding to glmS ribozyme
glmS riboswitch = conditions: cited from earlier work
[3] = test system: bimolecular glmS ribozyme; assay: High-throughput glmS assay, FRET in 384-well plates (Example 2); format: biochemical, S. aureus; conditions: for relative fluorescence (relative to time zero): 200 μM
Description: High-throughput glmS assay. High-throughput fluorescence assay validation and screening was performed in 384-well black polypropylene plates (Corning part number 3677) in a 10 μL solution of 50 mM HEPES (pH 7.5 at 25° C.), 10 mM MgCl2, and 200 mM KCl, with 0.01% SDS where indicated in the text. A Tecan Aquarius multichannel pipettor (Tecan Group, LTD, Switzerland) was used for automated liquid handling. In a typical experiment, a reaction mixture containing buffer and both RNA domains was transferred into the assay plates with the liquid handler, the fluorescence was measured, and the reaction was initiated by the addition of ˜50 nl of either GlcN6P, an analog of GlcN6P, or a library compound suspended at 10 mM in DMSO using the Tecan pin tool (˜50 μM final concentration of compound). Plates were sealed with non-breathable sealing tape and protected from light for the specified incubation time, at which point the plate was briefly centrifuged and the fluorescence measured. All multiplate fluorescence measurements were conducted with a Wallach Envision (Perkin Elmer, Wellesly, Mass.) plate reader with a 480 nm excitation filter (30 nm bandwidth) and a 535 nm emission filter (25 nm bandwidth).
To enable FRET detection of cleavage, the substrate was synthesized with a 5-(and 6-)-carboxyfluorescein (5/6-FAM) donor at the 3′ end and a Cy3™ acceptor at the 5′ end. When excited at 485 nm, the 5/6-FAM donor normally emits at a maximum wavelength of 526 nm. When the substrate strand is intact, however, the fluorescence of 5/6-FAM is reduced presumably due to quenching by the proximal Cy3™ acceptor. After addition of GlcN6P and cleavage of the substrate strand, the two product strands dissociate, relieving the proximity of 5/6-FAM and Cy3™, with a concomitant increase of 5/6-FAM fluorescence. Similar fluorescence-based systems have been used to detect ribozyme cleavage in real time (Singh et al., RNA 1999; 5: 1348-1356; Hanne et al., Nucleosides Nucleotides 1998; 17: 1835-1850). Using this FRET detection strategy, the addition of 40 μM GlcN6P induces an increase in the fluorescence signal of greater than 6 fold within 20 minutes (FIG. 7B). The modest burst in fluorescence increase could be due to a conformational change in the substrate that occurs upon ligand binding. Tertiary contacts between ribozyme and substrate would constrain the substrate to a greater extent compared to that caused by the short base paired region, thus increasing the average distance between donor and acceptor. Importantly, no fluorescence increase was observed over this time course in the absence of either GlcN6P or the ribozyme.
To facilitate rapid solution-based measurement of cleavage for large compound libraries, the assay conditions were optimized for automated liquid handling and fluorescence measurement in 384-well microplates. To reduce demand for enzyme and substrate RNAs, the concentrations of these molecules were varied to determine the minimal concentration of each that can be used to give a reproducible and statistically significant increase in the fluorescent signal. At 10 nM of each strand, a 4-fold increase in fluorescence was observed after 68 hours when 100 μM GlcN6P was present (FIG. 7C). […] At incubation times less than 48 hours, the increase in fluorescence was noticeably less, most likely because the concentration of the two RNA strands is well below the measured dissociation constant of 0.2 μM, slowing the observed cleavage rate. […]

[4] = test system: bimolecular glmS ribozyme; assay: Single reaction FRET-based kinetic assay of glmS cleavage; format: biochemical, S. aureus; conditions: 40 μM GlcN6P, within 20 minutes
Description: Low-throughput glmS kinetic analyses. All kinetic assays were conducted in 50 mM HEPES (pH 7.5 at 25° C.), 10 mM MgCl2, and 200 mM KCl. To initiate the reaction, GlcN6P was added to give a final concentration of 200 μM. Kinetic assays with radiolabeled substrate were performed as described previously (Soukup, Nucleic Acids Res 2006; 34: 968-975). Rate constants were established by plotting the natural logarithm of the fraction of substrate remaining uncleaved versus time, and then determining the negative slope of the resulting line. For the highest rate constants, only the initial phase of the plots were used because ˜20% of the RNA substrate remained uncleavable. […]
To enable FRET detection of cleavage, the substrate was synthesized with a 5-(and 6-)-carboxyfluorescein (5/6-FAM) donor at the 3′ end and a Cy3™ acceptor at the 5′ end. […] When the substrate strand is intact, however, the fluorescence of 5/6-FAM is reduced presumably due to quenching by the proximal Cy3™ acceptor. After addition of GlcN6P and cleavage of the substrate strand, the two product strands dissociate, relieving the proximity of 5/6-FAM and Cy3™, with a concomitant increase of 5/6-FAM fluorescence. Similar fluorescence-based systems have been used to detect ribozyme cleavage in real time (Singh et al., RNA 1999; 5: 1348-1356; Hanne et al., Nucleosides Nucleotides 1998; 17: 1835-1850). […]

[5] = test system: bimolecular glmS ribozyme; assay: Kinetic assay with 5'-radiolabeled substrate; format: biochemical, S. aureus; conditions: 0.5 μM ribozyme, 200 μM GlcN6P, saturating substrate, 25° C.
Description: Low-throughput glmS kinetic analyses. All kinetic assays were conducted in 50 mM HEPES (pH 7.5 at 25° C.), 10 mM MgCl2, and 200 mM KCl. To initiate the reaction, GlcN6P was added to give a final concentration of 200 μM. Kinetic assays with radiolabeled substrate were performed as described previously (Soukup, Nucleic Acids Res 2006; 34: 968-975). Rate constants were established by plotting the natural logarithm of the fraction of substrate remaining uncleaved versus time, and then determining the negative slope of the resulting line. For the highest rate constants, only the initial phase of the plots were used because ˜20% of the RNA substrate remained uncleavable. Single reaction FRET-based kinetic assays were performed with λexcit=488 nm (slit width=1 nm), λemit=523 nm (slit width=8 nm).
Although the glmS ribozyme sequence is highly conserved among many bacterial species, the S. aureus sequence was chosen for screening development because of its clinical importance. To facilitate detection of cleavage, the natural self-cleaving glmS ribozyme was converted to a bimolecular ribozyme (FIG. 6B) in which separate substrate and ribozyme oligonucleotides associate via a truncated P1 stem. […]

[6] = test system: unimolecular glmS ribozyme; conditions: cited from earlier work
glmS ribozyme [7] = assay: PAGE / electrophoretic analysis of glmS ribozyme activation; format: biochemical, S. aureus; conditions: after incubating for 2 hours
Description: This cutoff for functional compounds (“hits”) of 2.5-fold increased fluorescence represents a statistically significant 18 standard deviations over the mean fluorescence value in the absence of ligand (“NL”). […] A similar case exists for glucosamine, which induces a 3.0-fold increase in fluorescence after 44 hours, even though its measured affinity for the ribozyme is more than 100-fold lower than GlcN6P (McCarthy et al., Chem Biol 2005; 12: 1221-1226). Thus, the fluorescent report from the high-throughput screen accurately reflects binding activity for the glmS ribozyme.
Each of the five compounds identified was retested for glmS activation with either the fluorescence screen or by electrophoretic methods. […] Moreover, these types of infrequent false-positive hits have been observed for other fluorescence-based high-throughput screens (Zhang et al., J Biomol Screen 2005; 10: 695-704) and can readily be confirmed or refuted in our case with the secondary ribozyme cleavage assay (Soukup and Breaker, RNA 1999; 5: 1308-1325). One possible explanation for the false positives is that they quench or otherwise modify the fluorescent label on the RNA over the 44 hour time course, or that the compounds become fluorescent over time. Nevertheless, the identification of glucosamine confirms that this screen can identify even low affinity glmS-activating compounds from complex compound libraries.

For `Cc1cc2nc3c(=O)[nH]c(=O)nc-3n(C[C@H](O)[C@H](O)[C@H](O)CO)c2cc1C` [riboflavin], the “discrimination against ligand relative to FMN” value (ribD RNA) is listed as “approximately three orders of magnitude”.
For `N[C@H]1C(O)O[C@H](CO)[C@@H](O)[C@@H]1O` (some centres unmarked) [Gln com], the “Fl21 h/Flg h” value (glmS ribozyme [1]) was 1.87 and the “Activity by electrophoretic in-line probing” value (glmS ribozyme [2]) was “Yes”.
In the case of `CC(=O)N[C@H]1C(O)O[C@H](COP(=O)(O)O)[C@@H](O)[C@@H]1O` (some centres unmarked) [AcNGln 6P], the “Fl21 h/Flg h” value (glmS ribozyme [1]) is reported as 2.28 and the “Activity by electrophoretic in-line probing” value (glmS ribozyme [2]) is reported as “Weakly”.
For `N[C@H]1C(O)O[C@H](COP(=O)(O)O)[C@@H](O)[C@@H]1O` (some centres unmarked) [Gln6P, glucosamine-6-phosphate], the “concentration that activates cleavage” value (glmS riboswitch; concentrations as low as) is listed as no less than 1 µM, the single-turnover rate constant (glmS riboswitch; previously reported) is listed as 1 min⁻¹ and the Kd (glmS riboswitch; read-out: apparent KD) is listed as 200 µM. The “increase in fluorescence intensity of Fl” value (glmS ribozyme [1]; 160 μM glucosamine-6-phosphate, minimum of 10 hours incubation) was roughly 4 fold, the “Fl21 h/Flg h” value (glmS ribozyme [1]) was 3.36 and the “Activity by electrophoretic in-line probing” value (glmS ribozyme [2]) was “Yes”. For the same compound, the increase in fluorescence ([3]; 10 nM of each strand, 100 μM GlcN6P, after 68 hours, 0.01% SDS) was 4 fold, the “relative fluorescence (relative to time zero)” value ([3]; 21 hours) was 3.5 and the “relative fluorescence (relative to time zero)” value ([3]; 44 hours) was 3.4. The increase in fluorescence ([3]; screen of library of twelve GlcN6P analogs) was 3.5 fold, the “increase in the fluorescence signal” value [4] was “greater than 6 fold” and the “apparent rate constant of cleavage” value [5] was 0.25 min⁻¹.
With `C[N+](C)(C)C1C(O)OC(COP(=O)(O)O)C(O)C1O` (centres unmarked) [Me3N-Gln 6P] the “Fl21 h/Flg h” value (glmS ribozyme [1]) was 1.27 and the “Activity by electrophoretic in-line probing” value (glmS ribozyme [2]) was “No”.
With `CNC1C(O)OC(COP(=O)(O)O)C(O)C1O` (centres unmarked) [MeN-Gln 6P] the “Fl21 h/Flg h” value (glmS ribozyme [1]) was 3.49 and the “Activity by electrophoretic in-line probing” value (glmS ribozyme [2]) was “Yes”.
With `N[C@@H]1[C@@H](O)[C@H](O)[C@@H](COP(=O)(O)O)O[C@@H]1O` [Gln6P com] the “Fl21 h/Flg h” value (glmS ribozyme [1]) was 2.24 and the “Activity by electrophoretic in-line probing” value (glmS ribozyme [2]) was “Yes”.
For `Cc1cc2nc3c(=O)[nH]c(=O)nc-3n(C[C@H](O)[C@H](O)[C@H](O)COP(=O)(O)O)c2cc1C` [FMN, flavin mononucleotide], the Kd (ribD RNA; read-out: apparent KD) is listed as roughly 0.005 µM.
In the case of `N[C@H]1C(O)O[C@H](CO)[C@@H](O)[C@@H]1O` (some centres unmarked) [glucosamine], the “activity in previously described glmS screen” value ([6]; after 30 minutes) is listed as “no observable activity”, the “activation of the glmS ribozyme” value [6] is listed as “cannot activate it” and the increase in fluorescence ([3]; after 44 hours) is listed as 3.0 fold. The “cleavage on a gel” value (glmS ribozyme [7]) was “stimulates detectable cleavage”.
In the case of `O=C[C@H](O)[C@@H](O)[C@H](O)[C@H](O)COP(=O)(O)O` [glucose-6-phosphate], the “activation of the glmS ribozyme” value [6] is given as “cannot activate it”.
With `COC1OC(COP(=O)(O)O)C(O)C(O)C1N` (stereo not drawn) [β-MeO-Gln 6P] the “Fl21 h/Flg h” value (glmS ribozyme [1]) was 1.02 and the “Activity by electrophoretic in-line probing” value (glmS ribozyme [2]) was “No”.
With `O=P(O)(O)OC[C@H]1OC(O)[C@H](O)[C@@H](O)[C@H]1O` (some centres unmarked) [Gal6P] the “Fl21 h/Flg h” value (glmS ribozyme [1]) was 1.69.
